Read-outs that look alike come from different tables or passages of the source.
Target: T1, flTau aggregates (longest isoform of human Tau, 2N4R) (Homo sapiens, UniProt P10636)
T1 construct: 35 μM of recombinant full-length (fl) Tau in phosphate-buffered saline (PBS) were aggregated; purchased Biotechne; host or cells: bacteria
Experiment: Full-length Tau (flTau) disaggregation assay by Thioflavin T (ThT)
Assay type: biochemical
Procedure: Full-Length Tau (flTau) Disaggregation Assay by Thioflavin T (ThT)
The longest isoform of human Tau (2N4R; 441 amino acids) was expressed in bacteria and purified (Biotechne). For the Tau disaggregation assay by ThT, 35 μM of recombinant full-length (fl) Tau in phosphate-buffered saline (PBS) were aggregated for 72 hours at 37° C. in presence of 35 μM of heparin (Sigma-Aldrich) and 10 mM of […] (Sigma-Aldrich) under shaking at 1000 RPM. Compound 1 was dissolved in anhydrous dimethyl sulfoxide (DMSO, Sigma-Aldrich) to reach a concentration of 2.5 mM. flTau aggregates and serial dilutions of compound 1 were mixed together in PBS (volume 50 μL) to a final concentration of 60 nM of flTau aggregates and from 20 to 0.0012 μM of Compound 1. The mixture was incubated for 30 minutes at room temperature (RT), then 40 μL of this mixture were transferred into a black 384-well plate assay (Perkin-Elmer) and mixed with 10 μL of 20 μM ThT in 250 mM glycine (both from Sigma-Aldrich) in PBS. Fluorescence (relative fluorescence units; RFU) was measured in monoplicate or duplicate on a Tecan reader (excitation: 440 nm; emission: 485 nm). Percentage of flTau disaggregation was then calculated and the half maximal effective concentration (EC50) was determined using GraphPad Prism version 8 (GraphPad Software) assuming a one-binding site fitting model, see Table 3 and Table 4.

[1] = ThT fluorescence; 60 nM flTau aggregates, 30 minutes at RT; read-out: flTau disaggregation EC50

T1 sequence (P10636 1-441 isoform P10636-8): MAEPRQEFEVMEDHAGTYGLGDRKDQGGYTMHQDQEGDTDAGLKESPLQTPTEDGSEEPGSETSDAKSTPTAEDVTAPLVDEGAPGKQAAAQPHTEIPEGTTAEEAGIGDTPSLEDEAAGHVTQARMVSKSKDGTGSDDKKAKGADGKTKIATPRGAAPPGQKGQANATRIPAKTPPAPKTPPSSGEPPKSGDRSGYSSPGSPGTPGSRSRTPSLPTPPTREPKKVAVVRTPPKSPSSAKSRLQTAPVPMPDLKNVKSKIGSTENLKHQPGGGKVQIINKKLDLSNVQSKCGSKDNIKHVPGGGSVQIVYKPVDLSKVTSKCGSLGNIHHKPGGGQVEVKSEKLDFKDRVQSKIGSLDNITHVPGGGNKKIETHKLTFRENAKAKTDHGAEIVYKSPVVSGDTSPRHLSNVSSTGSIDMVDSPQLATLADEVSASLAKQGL

SMILES | EC50 [1] [nM] | EC50 (read-out: flTau disaggregation EC50; ThT fluorescence; 60 nM flTau aggregates, 30 minutes at RT) [nM]
Cn1cc(C2CCN(c3ccc4oc(N5CCOCC5)nc4c3)CC2)c2ccccc21 [Example 68, 5-(4-(1-methyl-1H-indol-3-yl)piperidin-1-yl)-2-morpholinobenzo[d]oxazole] | 1000 to 10000 | 
COC1CCN(c2nc3cc(N4CCC(c5n[nH]c6ccccc56)CC4)ccc3o2)CC1 [Example 80, 5-(4-(1H-indazol-3-yl)piperidin-1-yl)-2-(4-methoxypiperidin-1-yl)benzo[d]oxazole] | 1000 to 10000 | 
Cn1cc(C2CCN(c3ccc4sc(N5CCOCC5)nc4c3)C2)c2cc(F)cnc21 (stereo not drawn) [Example 81, 4-(5-(3-(5-fluoro-1-methyl-1H-pyrrolo[2,3-b]pyridin-3-yl)pyrrolidin-1-yl)benzo[d]thiazol-2-yl)morpholine] | < 1000 | 
COC1CCN(c2nc3cc(N4CCC(c5cn(C)c6ncc(F)cc56)C4)ccc3o2)CC1 (stereo not drawn) [Example 96, 5-(3-(5-fluoro-1-methyl-1H-pyrrolo[2,3-b]pyridin-3-yl)pyrrolidin-1-yl)-2-(4-methoxypiperidin-1-yl)benzo[d]oxazole] | 1000 to 10000 | 
O=C(Nc1ccc2oc(N3CCOCC3)nc2c1)c1c[nH]c2ncccc12 [Example 13, N-(2-morpholinobenzo[d]oxazol-5-yl)-1H-pyrrolo[2,3-b]pyridine-3-carboxamide] | < 1000 | 
Cn1cc(C2CCN(c3ccc4oc(N5CCOCC5)nc4c3)CC2)c2cccnc21 [Example 21, 5-(4-(1-methyl-1H-pyrrolo[2,3-b]pyridin-3-yl)piperidin-1-yl)-2-morpholinobenzo[d]oxazole] | 1000 to 10000 | 
Cn1cc(C2CCN(c3ccc4nc(N5CCOCC5)sc4c3)C2)c2cc(F)cnc21 (stereo not drawn) [Example 83, 4-(6-(3-(5-fluoro-1-methyl-1H-pyrrolo[2,3-b]pyridin-3-yl)pyrrolidin-1-yl)benzo[d]thiazol-2-yl)morpholine] | < 1000 | 
Cn1cc(C2CCN(c3ccc4oc(N5CC6CC(C5)O6)nc4c3)C2)c2cc(F)cnc21 (stereo not drawn) [Example 99, 3-(5-(3-(5-fluoro-1-methyl-1H-pyrrolo[2,3-b]pyridin-3-yl)pyrrolidin-1-yl)benzo[d]oxazol-2-yl)-6-oxa-3-azabicyclo[3.1.1]heptane] |  | 1000 to 10000
Cn1cc(C2CCN(c3ccc4oc(N5CCOCC5)nc4n3)C2)c2cc(F)cnc21 (stereo not drawn) [Example 90, 5-(3-(5-fluoro-1-methyl-1H-pyrrolo[2,3-b]pyridin-3-yl)pyrrolidin-1-yl)-2-morpholinooxazolo[4,5-b]pyridine] | < 1000 | 
c1ccc2c(-c3cnn(-c4ccc5oc(N6CCOCC6)nc5c4)c3)n[nH]c2c1 [Example 8, 5-(4-(1H-indazol-3-yl)-1H-pyrazol-1-yl)-2-morpholinobenzo[d]oxazole] | < 1000 | 
Fc1ccc2[nH]nc(C3CCN(c4ccc5oc(N6CCOCC6)nc5c4)CC3)c2c1 [Example 61, 5-(4-(5-fluoro-1H-indazol-3-yl)piperidin-1-yl)-2-morpholinobenzo[d]oxazole] | 1000 to 10000 | 
COC1CCN(c2nc3cc(N4CCC(c5cn(C)c6ncc(F)cc56)C4)ccc3o2)CC1 (stereo not drawn) [Example 97, 5-(3-(5-fluoro-1-methyl-1H-pyrrolo[2,3-b]pyridin-3-yl)pyrrolidin-1-yl)-2-(4-methoxypiperidin-1-yl)benzo[d]oxazole] | 1000 to 10000 | 
c1ccc2c(C3CCN(c4cc5oc(N6CCOCC6)nc5cn4)CC3)n[nH]c2c1 [Example 72, 6-(4-(1H-indazol-3-yl)piperidin-1-yl)-2-morpholinooxazolo[4,5-c]pyridine] | 10000 to 50000 | 
C(#Cc1c[nH]c2ccccc12)c1ccc2oc(N3CCOCC3)nc2c1 [Example 6, 5-((1H-indol-3-yl)ethynyl)-2-morpholinobenzo[d]oxazole] | 1000 to 10000 | 
c1ccn2c(C3CCN(c4ccc5oc(N6CCOCC6)nc5c4)CC3)cnc2c1 [Example 25, 5-(4-(imidazo[1,2-a]pyridin-3-yl)piperidin-1-yl)-2-morpholinobenzo[d]oxazole] | 1000 to 10000 | 
c1ccc2c(-c3ccn(-c4ccc5oc(N6CCOCC6)nc5c4)n3)c[nH]c2c1 [Example 11, 5-(3-(1H-indol-3-yl)-1H-pyrazol-1-yl)-2-morpholinobenzo[d]oxazole] | < 1000 | 
C1=C(c2c[nH]c3ccccc23)CCN(c2ccc3oc(N4CCOCC4)nc3c2)C1 [Example 107, 5-(4-(1H-indol-3-yl)-3,6-dihydropyridin-1(2H)-yl)-2-morpholinobenzo[d]oxazole] | < 1000 | 
C(#Cc1n[nH]c2ccccc12)c1ccc2oc(N3CCOCC3)nc2c1 [Example 5, 5-((1H-indazol-3-yl)ethynyl)-2-morpholinobenzo[d]oxazole] | < 1000 | 
Fc1cccc2[nH]nc(C3CCN(c4ccc5oc(N6CCOCC6)nc5c4)CC3)c12 [Example 73, 5-(4-(4-fluoro-1H-indazol-3-yl)piperidin-1-yl)-2-morpholinobenzo[d]oxazole] | 1000 to 10000 | 
Cc1ccc2c(C3CCN(c4ccc5oc(N6CCOCC6)nc5c4)CC3)n[nH]c2c1 [Example 77, 5-(4-(6-methyl-1H-indazol-3-yl)piperidin-1-yl)-2-morpholinobenzo[d]oxazole] | 1000 to 10000 | 
Fc1ccc2c(C3CCN(c4ccc5oc(N6CCOCC6)nc5c4)CC3)n[nH]c2c1 [Example 74, 5-(4-(6-fluoro-1H-indazol-3-yl)piperidin-1-yl)-2-morpholinobenzo[d]oxazole] | 1000 to 10000 | 
Cn1cc(C2CCN(c3cnc4oc(N5CCOCC5)nc4c3)C2)c2cc(F)cnc21 (stereo not drawn) [Example 85, 6-(3-(5-fluoro-1-methyl-1H-pyrrolo[2,3-b]pyridin-3-yl)pyrrolidin-1-yl)-2-morpholinooxazolo[5,4-b]pyridine] | < 1000 | 
O=C(Nc1ccc2oc(N3CCOCC3)nc2c1)c1c[nH]c2ccccc12 [Example 12, N-(2-morpholinobenzo[d]oxazol-5-yl)-1H-indole-3-carboxamide] | < 1000 | 
c1ccc2c(C3CCN(c4cnc5oc(N6CCOCC6)nc5c4)CC3)n[nH]c2c1 [Example 49, 6-(4-(1H-indazol-3-yl)piperidin-1-yl)-2-morpholinooxazolo[5,4-b]pyridine] | 10000 to 50000 | 
c1ccc2c(C3CCN(c4ccc5oc(N6CCOCC6)nc5c4)C3)c[nH]c2c1 (stereo not drawn) [Example 39, 5-(3-(1H-indol-3-yl)pyrrolidin-1-yl)-2-morpholinobenzo[d]oxazole] | 1000 to 10000 | 
FC1CN(c2ccc3oc(N4CCOCC4)nc3c2)CCC1c1n[nH]c2ccccc12 (stereo not drawn) [Example 94, 5-(3-fluoro-4-(1H-indazol-3-yl)piperidin-1-yl)-2-morpholinobenzo[d]oxazole] | 1000 to 10000 | 
c1ccc2c(C3CCN(c4cc5nc(N6CCOCC6)oc5cn4)CC3)n[nH]c2c1 [Example 45, 6-(4-(1H-indazol-3-yl)piperidin-1-yl)-2-morpholinooxazolo[5,4-c]pyridine] | 1000 to 10000 | 
Cn1cc(C2CCN(c3ccc4nc(N5CCOCC5)sc4c3)C2)c2cc(F)cnc21 (stereo not drawn) [Example 82, 4-(6-(3-(5-fluoro-1-methyl-1H-pyrrolo[2,3-b]pyridin-3-yl)pyrrolidin-1-yl)benzo[d]thiazol-2-yl)morpholine] | < 1000 | 
Fc1cccc2c(C3CCN(c4ccc5oc(N6CCOCC6)nc5c4)CC3)n[nH]c12 [Example 75, 5-(4-(7-fluoro-1H-indazol-3-yl)piperidin-1-yl)-2-morpholinobenzo[d]oxazole] | < 1000 | 
Cn1cc(C2CCN(c3cc4nc(N5CCOCC5)oc4cn3)C2)c2cc(F)cnc21 (stereo not drawn) [Example 86, 6-(3-(5-fluoro-1-methyl-1H-pyrrolo[2,3-b]pyridin-3-yl)pyrrolidin-1-yl)-2-morpholinooxazolo[5,4-c]pyridine] | 1000 to 10000 | 

From US20230391774A1, “Novel Compounds” (AC Immune SA, priority 2020, published 2023)
